Data as given in patent US20230000813A1, “COMPOUND FOR THE TREATMENT OF BOVINE OR SWINE RESPIRATORY DISEASE” (Intervet Inc., priority 2016, published 2023).
In brackets after ≈: the same amount, converted by molar mass.

Legend:
Assay in all cases: MIC, broth-microdilution (CLSI VET01-A4)
Format in all cases: cell-based
[1] = system: Mannheimia haemolytica MH 10720 (154, BRD field isolate); conditions: Mannheimia haemolytica MH 10720
Protocol: (§1) The Minimum inhibitory concentrations (MIC) of compounds according to the invention for a number of veterinary bacterial pathogens were determined by the broth-microdilution method according to CLSI document VET01-A4.
(§2) Microdilution trays containing a doubling dilution series of the test compound were used for the tests. The MIC results were interpreted according to the CLSI documents VET01-S3. The lowest concentration of compound at which no visible growth (i.e. no turbidity) detected by the unaided eye was recorded as the MIC.
(§3) The Minimum inhibitory concentrations (MIC) of compounds according to the invention were determined by the broth-microdilution method according to CLSI document VET01-A4.
(§4) Microdilution trays containing a doubling dilution series of the test compound were used for the tests.
(§5) The MIC results were interpreted according to the CLSI documents VET01-S3. The lowest concentration of compound at which no visible growth (i.e. no turbidity) detected by the unaided eye was recorded as the MIC.

[2] = system: Mannheimia haemolytica MH 6357 (M7/2, reference strain, cattle infection strain); conditions: Mannheimia haemolytica MH 6357; for MIC: read-out: MIC MH 6357
Protocol: as §1, §2, §3, §4, §5

[3] = system: Pasteurella multocida PM 6391 (ATCC 43137, reference strain); conditions: Pasteurella multocida PM 6391
Protocol: as §1, §2, §3, §4, §5

[4] = system: Pasteurella multocida PM 12080 (IV102277-0093, BRD field isolate); conditions: Pasteurella multocida PM 12080
Protocol: as §1, §2, §3, §4, §5

[5] = system: Mannheimia haemolytica MH 12587 (1071, BRD field isolate, macrolide-resistance: erm+, E+); conditions: Mannheimia haemolytica MH 12587, macrolide-resistant
Protocol: as §1, §2, §3, §4, §5

[6] = system: Pasteurella multocida PM 6267 (P 2225 (L386), reference strain, mouse infection strain); conditions: Pasteurella multocida PM 6267
Protocol: as §1, §2, §3, §4, §5

[7] = system: Mannheimia haemolytica MH 6374 (ATCC 33396, reference strain); conditions: Mannheimia haemolytica MH 6374; for MIC: read-out: MIC MH 6374
Protocol: as §1, §2, §3, §4, §5

[8] = system: Mannheimia haemolytica MH 13093 (XB0472-6014.1, BRD field isolate)
Protocol: as §1, §2

SMILES	MIC MH 10720 [1]	MIC [2] [µM]	MIC PM 6391 [3]	MIC PM 12080 [4]	MIC MH 12587 [5] [µM]	MIC PM 6267 [6]	MIC MH 6374 [7]	MIC [8] [µM]	MIC MH 6357 [2]	MIC [7] [µM]	MIC ([1]; read-out: MIC MH 10720) [µM]
C=C(C)CNCc1ccc(C#Cc2ccc(C(=O)N[C@H](C(=O)NO)[C@@H](C)O)cc2)s1 [Compound 476]	<=0.1 μM	0.2 (≈ 0.0855 µg/mL)	<=0.1 μM	<=0.1 μM	0.8 (≈ 0.342 µg/mL)	<=0.1 μM	<=0.1 μM	0.4 (≈ 0.171 µg/mL)			
C[C@@H](O)[C@H](NC(=O)c1ccc(C#Cc2ccc(CNCc3ccc(F)cc3)s2)cc1)C(=O)NO [Compound 485]	<=0.1 μM		<=0.1 μM	<=0.1 μM	0.4 (≈ 0.193 µg/mL)	<=0.1 μM	<=0.1 μM	0.2 (≈ 0.0963 µg/mL)	<=0.1 μM		
C#CCNCc1ccc(C#Cc2ccc(C(=O)N[C@H](C(=O)NO)[C@@H](C)O)cc2)s1 [Compound 479]	<=0.1 μM		<=0.1 μM	<=0.1 μM	0.8 (≈ 0.329 µg/mL)	<=0.1 μM		0.8 (≈ 0.329 µg/mL)	<=0.1 μM	0.2 (≈ 0.0823 µg/mL)	
C[C@@H](O)[C@H](NC(=O)c1ccc(C#Cc2ccc(CN3CC=CC3)cc2)cc1)C(=O)NO [Compound 468]	<=0.1 μM		<=0.1 μM	<=0.1 μM	0.4 (≈ 0.168 µg/mL)	<=0.1 μM	<=0.1 μM	0.4 (≈ 0.168 µg/mL)	<=0.1 μM		
CC(O)C(NC(=O)c1ccc(C#CC#CC=CCNCc2cccnc2)cc1)C(=O)NO (stereo not shown) [Compound 460]		0.8 (≈ 0.346 µg/mL)	<=0.1 μM	<=0.1 μM	1.6 (≈ 0.692 µg/mL)	<=0.1 μM		1.6 (≈ 0.692 µg/mL)		0.8 (≈ 0.346 µg/mL)	
C=C(C)CNCc1ccc(C#Cc2ccc(C(=O)N[C@H](C(=O)NO)[C@@H](C)O)cc2)cn1 [Compound 486]		0.8 (≈ 0.338 µg/mL)	<=0.1 μM	<=0.1 μM	1.6 (≈ 0.676 µg/mL)	<=0.1 μM		1.6 (≈ 0.676 µg/mL)		1.6 (≈ 0.676 µg/mL)	0.2 (≈ 0.0845 µg/mL)
CSCCNCc1ccc(C#Cc2ccc(C(=O)N[C@H](C(=O)NO)[C@@H](C)O)cc2)s1 [Compound 482]	<=0.1 μM	0.2 (≈ 0.0895 µg/mL)	<=0.1 μM	<=0.1 μM	0.8 (≈ 0.358 µg/mL)	<=0.1 μM		0.8 (≈ 0.358 µg/mL)		0.4 (≈ 0.179 µg/mL)	
CC(O)C(NC(=O)c1ccc(C#CC#CC=CCNCc2cccs2)cc1)C(=O)NO (stereo not shown) [Compound 464]	<=0.1 μM	0.4 (≈ 0.175 µg/mL)	<=0.1 μM	<=0.1 μM	0.8 (≈ 0.35 µg/mL)	<=0.1 μM		0.8 (≈ 0.35 µg/mL)		0.2 (≈ 0.0875 µg/mL)	
C#CCNCc1ccc(C#Cc2ccc(C(=O)N[C@H](C(=O)NO)[C@@H](C)O)cc2)cn1 [Compound 490]	<=0.1 μM	0.4 (≈ 0.163 µg/mL)	<=0.1 μM	<=0.1 μM	1.6 (≈ 0.65 µg/mL)			1.6 (≈ 0.65 µg/mL)		0.8 (≈ 0.325 µg/mL)	
